From patent US12656344B2, “CTL peptide epitopes and antigen-specific T cells, methods for their discovery, and uses thereof” (Oslo universitetssykehus HF, priority 2013, dated 2026)
Where no end group is shown, it is not given here.

Tests used:
[1] = tested on: T cell clones reactive to MPO peptide #25; assay: Binding of HLA-A2 multimers with alanine-substituted MPO peptide #25 to T cell clones; assay type: cell-based, human; settings: PE-conjugated multimers; 3 T cell clones from CTL line #25; flow cytometry
Protocol: FIG. 6A-C. […] (A) Assays were performed as described in FIG. 2, except that only degranulation responses were measured. […] (B) Three of the clones shown in (A) were examined for binding of PE-conjugated HLA-A2 multimers containing the #25 peptide with and without an alanine substitution in each position, using flow cytometry.
To obtain more information on the range of T cell reactivities to one of these novel T cell epitopes, T-cell clones were generated from CTL line #25, specific for MPO epitope […] (SEQ ID NO:45).

[2] = tested on: primary T cells transduced with a MART-1 specific TCR; assay: Binding of alanine-replaced peptide #25 multimers to MART-1 TCR transduced T cells; assay type: cell-based, human; settings: specificity control for alanine-replaced multimers

“P506A: MPO peptide #25 (LIQPFMFRL) with an alanine-replacement in position 4, in HLA-A2 multimer (LIQAFMFRL; also: in HLA-A2 multimer) [Peptide P506A]” was tested, and the “HLA-A2 multimer binding of alanine-substituted #25 peptide relative to WT peptide” value [1] was “higher binding” and the “Multimer binding to primary T cells transduced with a MART-1 specific TCR” value [2] was “bound non-specifically”.
